# Legend:
# Assay type in all cases: in vivo
# Carnation = experiment: Foliar application (spraying) on potted plants; conditions: 8 g benzyl alcohol (400 L/Ha) in 16 g total (800 L/ha)
# Protocol: (§1) Assays were carried out on different plants by foliar application (spraying) to evaluate the herbicide function, its foliar application mode and its speed of action.
# (§2) The assays were carried out on potted plants. The application of the product is carried out with a trigger spray bottle which makes it possible to spray 1 g of product per spraying as microdroplets.
# (§3) The plants were sprinkled with different quantities of water containing different quantities of pure benzyl alcohol (PanReac AppliChem—ITW Reagents). The untreated (control) plants are sprinkled with the same total quantity, but of water only.
# (§4) The collapsing of the plant, the colour intensity of the plant and the diameter of the plant were measured in the following manner: • Collapsing of the plant: the collapsing was evaluated on a scale of 1 to 5. A score of 5 corresponds to the state of the plant habit at T0 and 1 corresponds to a total collapsing of the plant. • Colour intensity: the colour of the plant (leaves and flowers) is evaluated on a scale of 1 to 5. A score of 5 corresponds to the colour intensity of the plant at T0 and a score of 1 corresponds to a total discoloration of the plant (white or brown according to the type of plant). • Diameter of the plant: the diameter of the plant corresponds to the surface area occupied by the plant seen from above and is evaluated by a score of 1 to 5. A score of 5 corresponds to the diameter of the plant at T0 and a score of 1 corresponds to the size of the pot (or smaller than this).
# Dahlia = experiment: Foliar application (spraying) on potted plants; conditions: 2 g benzyl alcohol (100 L/Ha) in 20 g total (1000 L/ha)
# Protocol: as §1, §2, §3, §4
# Ivy = experiment: Foliar application (spraying) on potted plants; conditions: 16 g benzyl alcohol (800 L/Ha) in 20 g total (1000 L/Ha)
# Protocol: as §1, §2, §3, §4
# Lobelia = experiment: Foliar application (spraying) on potted plants; conditions: 6 g benzyl alcohol (300 L/Ha) in 6 g total (300 L/ha)
# Protocol: as §1, §2, §3, §4
# Pink petunia = experiment: Foliar application (spraying) on potted plants; conditions: 0.4 g benzyl alcohol (20 L/Ha) in 4 g total (200 L/ha)
# Protocol: as §1, §2, §3, §4
# Purple horned pansy = experiment: Foliar application (spraying) on potted plants; conditions: 1 g benzyl alcohol (50 L/Ha) in 12 g total (600 L/Ha)
# Protocol: as §1, §2, §3, §4
# Sage = experiment: Foliar application (spraying) on potted plants; conditions: 4 g benzyl alcohol (200 L/Ha) in 10 g total (500 L/Ha)
# Protocol: as §1, §2, §3, §4
# White horned pansy = experiment: Foliar application (spraying) on potted plants; conditions: 12 g benzyl alcohol (600 L/Ha) in 12 g total (600 L/Ha)
# Protocol: as §1, §2, §3, §4
# White petunia = experiment: Foliar application (spraying) on potted plants; conditions: 0.1 g benzyl alcohol (5 L/Ha) in 6 g total (300 L/Ha)
# Protocol: as §1, §2, §3, §4
# Clover = experiment: Non-selective activity on herbaceous plants (spraying, potted); conditions: 4 g benzyl alcohol (200 L/Ha) in 8 g total (400 L/Ha)
# Protocol: (§5) The non-selective character of benzyl alcohol was studied on 3 common varieties of herbaceous plants, two dicotyledons (dandelions and clover) and a monocotyledon (grass).
# (§6) The assays were carried out on potted plants. The application of the product is carried out with a trigger spray bottle which makes it possible to spray 1 g of product per spraying, as microdroplets.
# (§7) The treated plants are sprinkled with different quantities of water comprising different quantities of pure benzyl alcohol (PanReac AppliChem—ITW Reagents). The untreated (control) plants are sprinkled with the same total quantity of water only.
# (§8) The plants are observed at the following times: T0, 6 h, 24 h, 48 h, 72 h, 96 h. The collapsing of the plant, the colour intensity and the diameter of the plant were measured as indicated in Example 1.
# Dandelion = experiment: as above; conditions: 4 g benzyl alcohol (200 L/Ha) in 8 g total (400 L/Ha)
# Protocol: as §5, §6, §7, §8
# [1] = tested on: Chenopodium album (CHEAL); experiment: Systemic action through contact with the leaves: metabolic activity by epifluorescence microscopy; conditions: 20 L/ha, control group 5
# Protocol: Chenopodium album (CHEAL) seeds are sown in Petri dishes in vermiculite moistened with a 0.2% solution of […]. The dishes are incubated in a climatic chamber at 15° C./20° C. night/day and 14 h photoperiod up to the stage of emergence of the cotyledons. The plantlets are then transplanted, at a rate of 6 plants per pot and 5 pots in each of the groups (treated group and control group), in a mixture of agricultural earth:vermiculite (50:50).
# The plantlets are cultivated under the same environmental conditions as previously up to the stage BBCH12-14.
# The plants are treated with benzyl alcohol at the stage BBCH12-14 with a dose of 20 L/ha benzyl alcohol with 660 g/I water, i.e. 13.2 kg benzyl alcohol/ha.
# The product is applied in a volume corresponding to 300 L/ha using a spraying bench equipped with agricultural nozzles (Turbo Teejet TTII0015).
# After treatment, the plants are returned to cultivation in a climatic chamber at 15° C./20° C. night/day and 14 h photoperiod.
# A control group is not treated and only receives water.
# […] observations were carried out by epifluorescence microscopy on the leaves and the roots of the treated plants and the control plants, 24 h and 7 days after treatment on the leaves.
# The results observed on the epifluorescence microscopy images are reported in Tables 11 and 12 below, in which a mark of 0 to 5 is attributed depending on the intensity and the surface area of the fluorescence observed, where 0=no metabolic activity, and 5=complete metabolic activity.
# Before uprooting and epifluorescence microscopy analysis, the treated plants were divided into 2 groups: • Group 1: plants not showing or showing few symptoms of drying on the treated area (leaf) • Group 2: plants having a dry leaf on the treated area (leaf)
# [2] = 24 h after leaf spraying, Group 1 (no or few symptoms of drying)
# [3] = 24 h after leaf spraying, Group 2 (dry leaf on treated area)
# [4] = 7 days after leaf spraying, Group 1 (no or few symptoms of drying)
# [5] = 7 days after leaf spraying, Group 2 (dry leaf on treated area)
compound,measurement,setting,value
OCc1ccccc1 [benzyl alcohol],Collapsing of treated plant (score and time): time to pass from score 5 (T0) to score 1,Carnation,1 to 24 h
same,Colour intensity of treated plant (score and time): time to pass from score 5 (T0) to score 1,Carnation,1 to 24 h
same,Diameter of treated plant (score and time): time to pass from score 5 (T0) to score 1,Carnation,1 to 48 h
same,Collapsing of treated plant (score and time): time to pass from score 5 (T0) to score 1,Dahlia,1 to 48 h
same,Colour intensity of treated plant (score and time): time to pass from score 5 (T0) to score 1,Dahlia,1 to 24 h
same,Diameter of treated plant (score and time): time to pass from score 5 (T0) to score 1,Dahlia,1 to 72 h
same,Collapsing of treated plant (score and time): time to pass from score 5 (T0) to score 1,Ivy,1 to 96 h
same,Colour intensity of treated plant (score and time): time to pass from score 5 (T0) to score 1,Ivy,1 to 48 h
same,Diameter of treated plant (score and time): time to pass from score 5 (T0) to score 1,Ivy,1 to 96 h
same,Collapsing of treated plant (score and time): time to pass from score 5 (T0) to score 1,Lobelia,1 to 24 h
same,Colour intensity of treated plant (score and time): time to pass from score 5 (T0) to score 1,Lobelia,1 to 24 h
same,Diameter of treated plant (score and time): time to pass from score 5 (T0) to score 1,Lobelia,1 to 24 h
same,Collapsing of treated plant (score and time): time to pass from score 5 (T0) to score 1,Pink petunia,1 to 72 h
same,Colour intensity of treated plant (score and time): time to pass from score 5 (T0) to score 1,Pink petunia,1 to 48 h
same,Diameter of treated plant (score and time): time to pass from score 5 (T0) to score 1,Pink petunia,1 to 96 h
same,Collapsing of treated plant (score and time): time to pass from score 5 (T0) to score 1,Purple horned pansy,1 to 48 h
same,Colour intensity of treated plant (score and time): time to pass from score 5 (T0) to score 1,Purple horned pansy,1 to 24 h
same,Diameter of treated plant (score and time): time to pass from score 5 (T0) to score 1,Purple horned pansy,1 to 48 h
same,Collapsing of treated plant (score and time): time to pass from score 5 (T0) to score 1,Sage,1 to 48 h
same,Colour intensity of treated plant (score and time): time to pass from score 5 (T0) to score 1,Sage,1 to 24 h
same,Diameter of treated plant (score and time): time to pass from score 5 (T0) to score 1,Sage,1 to 48 h
same,Collapsing of treated plant (score and time): time to pass from score 5 (T0) to score 1,White horned pansy,1 to 6 h
same,Colour intensity of treated plant (score and time): time to pass from score 5 (T0) to score 1,White horned pansy,1 to 6 h
same,Diameter of treated plant (score and time): time to pass from score 5 (T0) to score 1,White horned pansy,1 to 6 h
same,Collapsing of treated plant (score and time): time to pass from score 5 (T0) to score 1,White petunia,1 to 96 h
same,Colour intensity of treated plant (score and time): time to pass from score 5 (T0) to score 1,White petunia,1 to 96 h
same,Diameter of treated plant (score and time): time to pass from score 5 (T0) to score 1,White petunia,1 to 120 h
same,Collapsing (score and time): time to pass from score 5 (T0) to score 1,Clover,1 to 48 h
same,Colour intensity (score and time): time to pass from score 5 (T0) to score 1,Clover,1 to 24 h
same,Diameter (score and time): time to pass from score 5 (T0) to score 1,Clover,1 to 48 h
same,Collapsing (score and time): time to pass from score 5 (T0) to score 1,Dandelion,1 to 48 h
same,Colour intensity (score and time): time to pass from score 5 (T0) to score 1,Dandelion,1 to 24 h
same,Diameter (score and time): time to pass from score 5 (T0) to score 1,Dandelion,1 to 48 h
same,"Metabolic activity on the leaves (mark 0 to 5; 0=no, 5=complete metabolic activity)",[1]; [2],1
same,"Metabolic activity on the roots (mark 0 to 5; 0=no, 5=complete metabolic activity)",[1]; [2],2
same,"Metabolic activity on the leaves (mark 0 to 5; 0=no, 5=complete metabolic activity)",[1]; [3],1
same,"Metabolic activity on the roots (mark 0 to 5; 0=no, 5=complete metabolic activity)",[1]; [3],2.5
same,"Metabolic activity on the leaves (mark 0 to 5; 0=no, 5=complete metabolic activity)",[1]; [4],0.5
same,"Metabolic activity on the roots (mark 0 to 5; 0=no, 5=complete metabolic activity)",[1]; [4],1.5
same,"Metabolic activity on the leaves (mark 0 to 5; 0=no, 5=complete metabolic activity)",[1]; [5],0
same,"Metabolic activity on the roots (mark 0 to 5; 0=no, 5=complete metabolic activity)",[1]; [5],2

# — US20220338473A1, “USE OF BENZYL ALCOHOL AS A HERBICIDE” (INNOVI, priority 2019, published 2022)
